The source of these data is patent publication US9315520B2, “2-amino-6-methyl-4,4a,5,6-tetrahydropyrano[3,4-d][1,3]thiazin-8a(8H)-yl-1,3-thiazol-4-yl amides” (Pfizer Inc., priority 2014, dated 2016).

Read-outs that look alike come from different tables or passages of the source.

Data set [1] is described as follows: GSH Incubation Assay. It counts as in vitro ADME. Conditions: incubation in human liver microsomes in the presence of GSH.
In data set [2] the target is P-glycoprotein (MDR1-transfected MDCK cell line) (Homo sapiens (Human), UniProt P08183). The data set is described as follows: Pgp Liability MDR1 Er. The class given is in vitro ADME. Conditions: Papp BA/AB. The source says:
(§1) MDR1 Efflux Ratio (MDR Er) from MDR1-transfected MDCK line cell line represents the ratio of permeability, Papp BA/AB. Procedure utilized from (Feng, B.; Mills, J. B.; Davidson, R. E.; Mireles, R. J.; Janiszewski, J. S.; Troutman, M. D.; de Morais, S. M. In vitro P-glycoprotein assays to predict the in vivo interactions of P-glycoprotein with drugs in the central nervous system. Drug Metab. Dispos. 2008, 36, 268-275.

A further data set deals with BACE1 (Homo sapiens (Human), UniProt P56817). Description: BACE1 Cell-Free Assay (fluorescence polarization). It counts as biochemical. (In general: Fluorescence polarisation rises when a labelled molecule tumbles more slowly, as on binding a larger partner.)
Data set [3] in a line: HLM Clint (clearance in human liver microsomes). The class given is in vitro ADME.
Data set [4] relates to sAPPβ, the primary cleavage product of BACE1, in H4 human neuroglioma cells over-expressing the wild-type human APP695. The data set is described as follows: sAPPβ Whole-Cell Assay (WCA). It counts as cell-based. The following applies: 18 h. Here is the method:
sAPPβ Whole-Cell Assay (WCA):
sAPPβ, the primary cleavage product of BACE1, was determined in H4 human neuroglioma cells over-expressing the wild-type human APP695. […] The colorimetric reaction was read by an EnVision (PerkinElmer) plate-reader.

A further data set is described as follows: pKa. It counts as physicochemical. The following applies: Measurement determined at Analyza.
The target in another data set is human BACE2 (Homo sapiens (Human), UniProt Q9Y5Z0). Description: BACE2 binding assay (SPA). Conditions: ratio of IC50 from BACE2 and BACE1 binding assays, pH 6.0. The text has this: BACE2/BACE1 Binding Ratio:
The BACE1 and BACE2 binding assays measured beta-site amyloid precursor protein-cleaving enzyme (BACE) binding as a decrease in the counts of radioligand bound in a scintillation proximity assay (SPA). Utilizing a radiolabeled small molecule BACE active site binding inhibitor and crude HEK cell membrane preparations over-expressing full length BACE1 or BACE2, the binding of enzyme by test compound was monitored as a reduction of specific counts bound at pH 6.0. Full length human BACE1 or BACE2 over-expressed in HEK cells was prepared by Pfizer scientists. Frozen stock cell paste was reacted in 50 mM sodium acetate buffer (pH=6.0) containing 3H-(4aR,6R,8aS)-8a-(2,4-difluorophenyl)-6-(1-methyl-1H-pyrazol-4-yl)-4,4a,5,6,8,8a-hexahydropyrano[3,4-d][1,3]thiazin-2-amine ligand, SPA bead and 60 μM to 600 pM of test compound in an assay volume of 27 uL. The compound plate also contained positive (BACE inhibitor) and negative (DMSO) control wells. The binding was carried out at room temperature for 30 minutes and then the plates were read on a TriLux Microbeta reader to determine the number of counts bound.

A further data set addresses hERG channel (Homo sapiens (Human), UniProt Q12809). Description: hERG Patch Clamp Assay. The class given is cell-based. Here is the method: After a ˜30 minute recovery period, experiments were initiated.
hERG Potassium Channel Current Recordings and Data Analysis:
The intracellular recording saline was composed of (in […]): 70 KF, 60 KCl, 15 NaCl, 5 EGTA, 5 HEPES, and adjusted to pH 7.2±0.1 with KOH. […] Test pulses were delivered at a frequency of 0.25 Hz. Up to 4 different concentrations were studied on each cell, each exposure lasting 5 minutes or until steady-state effects were observed. […] Using Sophion Qpatch Assay Software, the amplitude of the peak outward hERG current upon repolarizing ramp was measured. Current amplitude was determined by taking the average of the last 5 current peaks under each treatment condition. […] When possible, a concentration-response curve was plotted and the data were fitted using Qpatch software to determine an IC50. The P<0.05 was considered statistically significant.
On the technique in general: The hERG channel carries a current that helps repolarise heart muscle cells.

The target in another data set is P-glycoprotein (MDR1) (Homo sapiens (Human), UniProt P08183). The data set is described as follows: Pgp Liability MDR1 Er. The following applies: dog; MDR1-transfected MDCK cell line; ratio of permeability, Papp BA/AB. It counts as in vitro ADME.
Text: as §1

A further data set concerns the target CYP2D6 (Homo sapiens (Human), UniProt P10635). The data set is described as follows: General Multi-Point Cocktail DDI IC50 Assay. Here is the method: General Multi-Point Cocktail DDI IC50 Assay Conditions:
The incubation volume is 0.1 mL, utilizing a 384-well plate format. […] Substrate concentrations are near Km values that had been previously determined and incubation times are selected based on determinations of reaction velocity linearity. […] Samples are directly injected on an HPLC/MS/MS system. A Biomek FX workstation is used for liquid handling and sample incubation.

A short description of data set [5]: GSH Incubation Assay. The class given is in vitro ADME. Here is the method:
The test compound (10 μM in DMSO) was incubated with L-glutathione (50 mM, prepared in 100 mM potassium phosphate buffer) at 37° C. for 4 hours and then analyzed by HPLC-UV/MS/MS without work-up. Thermo Accela HPLC and Velos Pro Orbitrap Elite (S/N: SN05189B) operating in positive mode with a source voltage of 3.5 kV with data dependant processing. HPLC with a Phenomenox Kinetex C18, 1.7 μM, 2.1×100 mm. column (P/N: 00D-4475-AN), 5% acetonitrile/95% 0.1% formic acid for 0.5 min then a 7.0 min linear gradient to 40% acetonitrile/60% 0.1% formic acid, 400 μL/min., column temperature 45° C. Product assignments were based on high resolution mass spectrometer fragmentation.

Where [6] appears, read: MDR1-transfected MDCK cell line, ratio of permeability.
Setting [7] is: Table 4, read-out: BACE1 Cell Free IC50.
[8] abbreviates: CHO cell transfected with hERG gene, automated Qpatch HT system.

Chain of P-glycoprotein (MDR1-transfected MDCK cell line) (P08183 whole entry): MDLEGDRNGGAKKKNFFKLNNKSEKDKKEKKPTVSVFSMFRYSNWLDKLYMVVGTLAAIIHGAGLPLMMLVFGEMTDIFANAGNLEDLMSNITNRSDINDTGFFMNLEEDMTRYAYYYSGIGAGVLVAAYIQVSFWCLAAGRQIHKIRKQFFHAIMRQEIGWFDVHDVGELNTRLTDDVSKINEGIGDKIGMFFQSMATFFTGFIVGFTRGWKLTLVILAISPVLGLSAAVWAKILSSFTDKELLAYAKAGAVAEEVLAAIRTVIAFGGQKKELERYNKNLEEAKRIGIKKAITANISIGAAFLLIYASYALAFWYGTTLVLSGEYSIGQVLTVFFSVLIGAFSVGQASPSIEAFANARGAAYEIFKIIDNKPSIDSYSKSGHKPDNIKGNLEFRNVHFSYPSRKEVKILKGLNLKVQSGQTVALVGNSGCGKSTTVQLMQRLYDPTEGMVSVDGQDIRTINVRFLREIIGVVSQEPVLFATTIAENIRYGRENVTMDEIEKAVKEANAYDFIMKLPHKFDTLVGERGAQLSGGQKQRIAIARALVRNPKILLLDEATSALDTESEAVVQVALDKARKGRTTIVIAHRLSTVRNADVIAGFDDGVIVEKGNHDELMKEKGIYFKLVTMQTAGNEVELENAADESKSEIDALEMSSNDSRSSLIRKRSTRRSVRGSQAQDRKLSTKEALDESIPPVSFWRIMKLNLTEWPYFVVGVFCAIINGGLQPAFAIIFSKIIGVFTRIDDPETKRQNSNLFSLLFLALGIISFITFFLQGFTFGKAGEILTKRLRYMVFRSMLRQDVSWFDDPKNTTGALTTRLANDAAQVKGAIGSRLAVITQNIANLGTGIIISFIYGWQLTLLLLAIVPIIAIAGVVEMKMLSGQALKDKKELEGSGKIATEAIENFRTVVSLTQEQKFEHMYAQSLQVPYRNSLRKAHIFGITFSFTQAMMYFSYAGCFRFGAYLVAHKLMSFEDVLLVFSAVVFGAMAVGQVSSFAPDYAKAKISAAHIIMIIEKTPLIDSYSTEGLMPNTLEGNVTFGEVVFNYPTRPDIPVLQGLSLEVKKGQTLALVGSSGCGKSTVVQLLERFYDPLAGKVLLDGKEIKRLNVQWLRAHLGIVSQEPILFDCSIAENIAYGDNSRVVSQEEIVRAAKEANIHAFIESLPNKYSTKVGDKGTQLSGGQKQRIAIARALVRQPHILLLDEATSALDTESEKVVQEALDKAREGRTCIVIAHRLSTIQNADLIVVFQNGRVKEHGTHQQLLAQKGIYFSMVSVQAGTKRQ
Chain of BACE1 (P56817 46-457): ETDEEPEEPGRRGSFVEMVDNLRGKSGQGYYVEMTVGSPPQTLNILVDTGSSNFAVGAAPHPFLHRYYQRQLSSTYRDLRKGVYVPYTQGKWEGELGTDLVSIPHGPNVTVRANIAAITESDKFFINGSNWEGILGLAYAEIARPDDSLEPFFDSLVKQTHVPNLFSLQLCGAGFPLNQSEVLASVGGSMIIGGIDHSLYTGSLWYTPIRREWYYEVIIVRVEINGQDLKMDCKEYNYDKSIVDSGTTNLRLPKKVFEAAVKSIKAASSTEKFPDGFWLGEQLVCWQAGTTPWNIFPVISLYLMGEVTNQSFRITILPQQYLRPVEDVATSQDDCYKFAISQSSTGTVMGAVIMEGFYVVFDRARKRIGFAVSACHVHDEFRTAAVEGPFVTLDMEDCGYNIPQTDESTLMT
Chain of hERG channel (Q12809 whole entry): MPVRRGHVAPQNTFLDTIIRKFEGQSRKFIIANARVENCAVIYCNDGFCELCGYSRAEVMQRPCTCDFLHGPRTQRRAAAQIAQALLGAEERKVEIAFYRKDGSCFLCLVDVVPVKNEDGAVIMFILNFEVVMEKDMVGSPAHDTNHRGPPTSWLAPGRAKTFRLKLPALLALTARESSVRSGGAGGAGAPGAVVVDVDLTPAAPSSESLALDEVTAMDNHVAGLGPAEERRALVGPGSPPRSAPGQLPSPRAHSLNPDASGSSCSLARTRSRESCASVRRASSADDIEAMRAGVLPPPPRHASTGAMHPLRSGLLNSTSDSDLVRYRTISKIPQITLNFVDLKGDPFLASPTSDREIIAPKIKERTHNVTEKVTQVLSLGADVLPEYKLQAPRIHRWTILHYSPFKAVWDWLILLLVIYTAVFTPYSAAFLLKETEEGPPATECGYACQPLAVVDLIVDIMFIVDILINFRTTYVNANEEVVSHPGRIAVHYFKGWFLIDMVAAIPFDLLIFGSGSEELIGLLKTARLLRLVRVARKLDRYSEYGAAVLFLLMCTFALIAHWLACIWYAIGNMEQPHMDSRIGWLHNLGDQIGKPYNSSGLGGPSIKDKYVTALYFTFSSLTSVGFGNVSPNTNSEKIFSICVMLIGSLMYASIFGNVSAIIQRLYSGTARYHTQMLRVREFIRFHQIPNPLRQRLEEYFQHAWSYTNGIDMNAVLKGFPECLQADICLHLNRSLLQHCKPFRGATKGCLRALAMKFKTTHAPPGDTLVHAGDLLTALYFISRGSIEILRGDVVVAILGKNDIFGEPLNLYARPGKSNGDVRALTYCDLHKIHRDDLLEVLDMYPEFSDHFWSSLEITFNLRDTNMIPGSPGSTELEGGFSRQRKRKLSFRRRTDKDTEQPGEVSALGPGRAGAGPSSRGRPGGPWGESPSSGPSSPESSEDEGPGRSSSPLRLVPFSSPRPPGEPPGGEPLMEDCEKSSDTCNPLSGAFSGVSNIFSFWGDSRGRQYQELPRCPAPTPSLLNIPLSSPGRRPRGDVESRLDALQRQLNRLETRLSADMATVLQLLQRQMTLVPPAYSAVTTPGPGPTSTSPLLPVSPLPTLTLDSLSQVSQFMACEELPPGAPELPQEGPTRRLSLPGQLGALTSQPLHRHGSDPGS
Chain of human BACE2 (Q9Y5Z0 63-518): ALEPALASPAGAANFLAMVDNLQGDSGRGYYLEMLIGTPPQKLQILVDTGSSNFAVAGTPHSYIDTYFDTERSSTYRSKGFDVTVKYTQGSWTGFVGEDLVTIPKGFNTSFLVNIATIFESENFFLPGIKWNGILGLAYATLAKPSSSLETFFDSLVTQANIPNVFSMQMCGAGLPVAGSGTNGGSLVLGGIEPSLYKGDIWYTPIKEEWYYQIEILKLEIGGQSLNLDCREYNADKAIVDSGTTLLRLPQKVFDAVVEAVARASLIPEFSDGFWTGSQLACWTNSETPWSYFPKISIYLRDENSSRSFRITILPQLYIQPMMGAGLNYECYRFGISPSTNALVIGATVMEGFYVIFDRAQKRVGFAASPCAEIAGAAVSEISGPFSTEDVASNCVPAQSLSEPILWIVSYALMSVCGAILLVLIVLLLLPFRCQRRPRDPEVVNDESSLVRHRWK
Chain of CYP2D6 (P10635 whole entry): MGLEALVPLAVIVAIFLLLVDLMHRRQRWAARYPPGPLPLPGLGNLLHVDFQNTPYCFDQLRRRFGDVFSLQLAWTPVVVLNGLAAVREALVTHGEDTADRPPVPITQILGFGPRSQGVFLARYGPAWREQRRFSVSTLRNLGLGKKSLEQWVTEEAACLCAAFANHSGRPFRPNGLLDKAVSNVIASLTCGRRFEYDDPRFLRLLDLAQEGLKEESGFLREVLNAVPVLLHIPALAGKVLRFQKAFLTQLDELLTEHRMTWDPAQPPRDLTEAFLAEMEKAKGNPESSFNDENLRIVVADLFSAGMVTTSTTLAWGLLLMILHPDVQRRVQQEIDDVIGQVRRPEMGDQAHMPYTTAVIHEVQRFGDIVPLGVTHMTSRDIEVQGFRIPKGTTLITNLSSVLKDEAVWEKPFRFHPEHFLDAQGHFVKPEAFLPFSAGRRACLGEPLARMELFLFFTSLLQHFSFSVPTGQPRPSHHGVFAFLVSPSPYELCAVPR
Chain of P-glycoprotein (MDR1) (P08183 whole entry): as the sequence (P08183 whole entry) above

Consider `C[C@H]1C[C@H]2CSC(N)=N[C@@]2(c2cc(NC(=O)c3ccc(C#N)cn3)cs2)CO1` [Comparator 5], for which the “formation of GSH adducts” value in the data set “GSH Incubation Assay [1]” is “formation of chemical adducts”. Further, in the data set “Aniline structural alert”, the “Aniline Structural Alert” value is given as “No”.

A word on the IC50: it is the concentration that inhibits the measured activity by half. As a reminder, the pKa is the negative logarithm of the acid dissociation constant. Turning to `NC1=N[C@@]2(c3cc(NC(=O)c4ccc(OC(F)F)cn4)ccc3F)CO[C@@H](C(F)(F)F)C[C@H]2CS1` [Comparator 6, reference compound], the “Pgp liability MDR1 Er” value in data set [2] (setting [6]) worked out at 3.2. Also, the 50% inhibitory concentration (IC50) was 6 nM at BACE1 (setting [7]) and under 1 nM in data set [4]. For the same compound, the “HLM CLint” value in data set [3] is recorded as under 12.8 mL/min/kg. In the data set “pKa”, this compound displayed a pKa of 7.7. Besides, in the data set “Aniline structural alert”, the “Aniline Structural Alert” value is “Yes”. Further, the “BACE2/BACE1 Binding Ratio” value on human BACE2 worked out at 1.0.

In the case of `C[C@H]1C[C@H]2CSC(N)=N[C@@]2(c2cc(NC(=O)c3ccc(Cl)cn3)ccc2F)CO1` [Comparator 7, reference compound], the “Pgp liability MDR1 Er” value in data set [2] (setting [6]) came out at 3.03. Further, the half-maximal inhibitory concentration (IC50) was 1 nM at BACE1 (setting [7]), under 1 nM in [4] and 200 nM at hERG channel (setting [8]). Further, in data set [3], the “HLM CLint” value is 34.4 mL/min/kg^. Moreover, the pKa in the data set “pKa” worked out at 8.2. For the same compound, the “Aniline Structural Alert” value in the data set “Aniline structural alert” is given as “Yes”. The “BACE2/BACE1 Binding Ratio” value at human BACE2 came out at 1.0.

In general, efflux ratio refers to the permeability from basolateral to apical divided by that in the opposite direction, in the common usage. As a reminder, the CLint scaled is a measure of how fast metabolising enzymes remove a compound, apart from limits set by blood flow. Low values mean slow turnover, high ones rapid turnover. As to `C[C@H]1C[C@H]2CSC(N)=N[C@@]2(c2nc(NC(=O)c3cnc(OC(F)F)cn3)cs2)CO1` [Example 2, N-{2-[(4aR,6S,8aR)-2-amino-6-methyl-4,4a,5,6-tetrahydropyrano[3,4-d][1,3]thiazin-8a(8H)-yl]-1,3-thiazol-4-yl}-5-(difluoromethoxy)pyrazine-2-carboxamide], the efflux ratio at P-glycoprotein (MDR1) came to 1.8. In addition, the “Pgp liability MDR1 Er” value in data set [2] (MDR1-transfected MDCK) is under 2.5. The IC50 was 73 nM at BACE1 (setting [7]); 73 nM at BACE1 (geometric mean of 2-4 determinations unless otherwise indicated (b: ≧5; c: single determination), read-out: BACE1 Cell-free Assay IC50); 7 nM in [4] (Homo sapiens); over 30000 nM at CYP2D6; over 30000 nM at CYP2D6 (human, microsomes, pH 7.4); 23600 nM at hERG channel (setting [8]). At hERG channel (CHO cells transfected with hERG), this compound displayed an IC50 of over 5000 nM. Besides, in data set [3], the “HLM CLint” value was under 8 mL/min/kg. In [3] (human), the CLint scaled was under 8 mL/min/kg. For the same compound, the pKa in “pKa” (read-out: pKa) amounted to 6.8. Also, the “Aniline Structural Alert” value in the data set “Aniline structural alert” is reported as “No”. Also, the “Observed GSH adducts” value in the data set “GSH Incubation Assay [5]” (Incubations with glutathione (50 mM) at 37° C. in buffer for 4 hours) is given as “Negative”. In addition, the “formation of GSH adducts” value in the data set “GSH Incubation Assay [5]” (following incubations) was “not detected”.
